From publication PMC8552062, “Contributions of UDP-Glucuronosyltransferases to Human Hepatic and Intestinal Metabolism of Ticagrelor and Inhibition of UGTs and Cytochrome P450 Enzymes by Ticagrelor and its Glucuronidated Metabolite” (Frontiers in Pharmacology, 2021)
“And” between values parts separate entries of the source, which are not always exact repeats. Equal values may be shown once.

Tests used:
UGT1A1 = biological target: T1, UGT1A1 (Homo sapiens, UniProt P22309); test: UGT1A1 inhibition in HLM (SN-38 glucuronidation); format: in vitro ADME; set-up: tissue XenoTech LLC; host or cells: pooled human liver microsomes; details: for IC50: UGT1A1, SN-38 glucuronide formation in HLM
T1 sequence (P22309 26-533): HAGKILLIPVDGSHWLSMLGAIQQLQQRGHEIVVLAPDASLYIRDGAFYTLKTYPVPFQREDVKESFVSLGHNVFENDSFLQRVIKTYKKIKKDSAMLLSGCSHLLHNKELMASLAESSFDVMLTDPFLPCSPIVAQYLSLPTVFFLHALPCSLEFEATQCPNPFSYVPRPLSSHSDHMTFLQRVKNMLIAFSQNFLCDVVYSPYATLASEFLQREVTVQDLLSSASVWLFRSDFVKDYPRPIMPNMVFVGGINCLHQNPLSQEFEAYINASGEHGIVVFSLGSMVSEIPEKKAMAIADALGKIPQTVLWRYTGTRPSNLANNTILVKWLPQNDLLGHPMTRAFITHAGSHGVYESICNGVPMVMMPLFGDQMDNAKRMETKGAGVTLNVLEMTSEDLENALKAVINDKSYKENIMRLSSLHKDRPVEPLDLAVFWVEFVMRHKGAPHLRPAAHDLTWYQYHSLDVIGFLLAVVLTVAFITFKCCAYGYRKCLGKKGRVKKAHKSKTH
Experimental: (§1) To assess drug-drug interactions (DDIs) potential caused by ticagrelor and ticagrelor-O-Glu through the inhibition of the major human UGTs enzymes, selective UGT probe substrates were co-incubated with ticagrelor or ticagrelor-O-Glu in HLM. The formation of metabolites, SN-38 glucuronide, chenodeoxycholic acid 24-acyl-β-D-glucuronide, trifluoperazine N-glucuronide, N-Acetyl serotonin glucuronide, mycophenolic acid glucuronide and 3′-azide-3′-deoxythymidine β-D-glucuronide, which could reflect the enzyme activities of UGT1A1, UGT1A3, UGT1A4, UGT1A6, UGT1A9 and UGT2B7, respectively, were quantified using LC-MS/MS. Three different concentrations of ticagrelor or ticagrelor-O-Glu (1, 10 and 100 μM) were added to the incubation system in the presence of selective UGT probe substrates (SN-38, chenodeoxycholic acid, trifluoperazine, N-Acetyl serotonin, mycophenolic acid and 3′-azide-3′-deoxythymidine), respectively. The assays were performed as described above. The control was treated with a vehicle solvent only. A triple determination was performed.
(§2) The percent inhibition relative to the control was calculated to indicate the UGTs or CYPs inhibition. For inhibition exceeding 50% of the control activity, nonlinear regression analysis was used to estimate the IC50 values using the GraphPad Prism 6 (GraphPad Software Inc., CA, United States).

UGT1A9 = biological target: T2, UGT1A9 (Homo sapiens, UniProt O60656); test: UGT1A9 inhibition in HLM (mycophenolic acid glucuronidation); format: in vitro ADME; set-up: tissue XenoTech LLC; host or cells: pooled human liver microsomes; details: for IC50: UGT1A9, mycophenolic acid glucuronide formation in HLM; for inhibition at 100 µM: human, human liver microsomes (HLM), probe mycophenolic acid, HLM, 100 μM test compound
T2 sequence (O60656 26-530): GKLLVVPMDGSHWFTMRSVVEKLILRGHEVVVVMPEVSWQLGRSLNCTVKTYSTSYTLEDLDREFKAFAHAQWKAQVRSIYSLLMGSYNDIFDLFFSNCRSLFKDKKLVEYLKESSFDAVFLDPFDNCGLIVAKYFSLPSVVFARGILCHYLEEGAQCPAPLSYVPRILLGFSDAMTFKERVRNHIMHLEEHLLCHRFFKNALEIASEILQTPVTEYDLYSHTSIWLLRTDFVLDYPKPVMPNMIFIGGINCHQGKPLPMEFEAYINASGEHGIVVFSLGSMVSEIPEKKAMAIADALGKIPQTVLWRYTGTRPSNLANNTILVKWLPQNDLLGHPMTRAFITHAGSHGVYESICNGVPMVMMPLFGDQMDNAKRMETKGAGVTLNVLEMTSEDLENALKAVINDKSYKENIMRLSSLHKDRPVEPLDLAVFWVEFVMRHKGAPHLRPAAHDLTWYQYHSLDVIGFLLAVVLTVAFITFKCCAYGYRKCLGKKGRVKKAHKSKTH
Experimental: as §1, §2

[1] = set-up: method as in Husted et al., 2006; details: humans, 100 mg b.i.d.; ref Husted et al., 2006; cited from earlier work
[2] = tested on: human liver microsomes (HLM); test: Ticagrelor glucuronidation kinetics in pooled HLM; format: in vitro ADME
Experimental: Ticagrelor glucuronidation was investigated in an in vitro incubation system by using HLM, HIM, and recombinant human UGTs. The incubation system consisted of enzyme sources (HLM, HIM, or human recombinant UGTs), various concentrations of ticagrelor (dissolved in 50% methanol, 1% v/v, 1, 2, 5, 10, 20, 50, 100, 200, 500 μM of final concentration), alamethicin (50 μg/mg protein), 5 mM MgCl2, 100 mM tris-HCL buffer (pH 7.4), and 5 mM UDPGA in a total volume of 100 μl. Alamethicin is a pore-forming polypeptide used to activate UGTs in HLM and HIM ([Fisher et al., 2000]). Preliminary studies were conducted to determine the optimal protein concentrations and incubation times. Linear conditions of ticagrelor-O-Glu formation from ticagrelor, i.e., HLM, 0.2 mg of protein/ml and 60 min, HIM, 0.2 mg of protein/ml and 60 min, and recombinant human UGTs, 0.2 mg of protein/ml and 60 min were selected. The incubation mixture without UDPGA was placed on ice for 15 min to activate UGT by alamethicin. After pre-incubation for 5 min at 37°C, the reactions were started by the addition of UDPGA. After another 60 min of incubation at 37°C, the reaction was terminated by adding 100 μl of acetonitrile containing internal standard (diazepam). The mixture vortexed for 2 min and then centrifuged at 14,000 rpm for 10 min at 4°C. The resulting supernatant was injected into a liquid chromatography tandem mass spectrometry (LC-MS/MS, Applied Biosystems/MDS Sciex, Foster City, CA) system for the detection of ticagrelor-O-Glu.
Kinetic analyses were performed using the mean values of triplicate determinations with either pooled HLM, HIM, or recombinant human UGTs. All data were analyzed by nonlinear regression analysis using the GraphPad Prism 6 (GraphPad Software Inc., CA, United States). Michaelis-Menten kinetics (Eq. 1) or substrate inhibition kinetics (Eq. 2) ([Houston and Kenworthy, 2000]) were tested to determine the optimal model for describing the data. […] Intrinsic clearance (CLint) was calculated by dividing Vmax by Km.

Row | inhibitory effect on UGT1A1 (UGT1A1; HLM, concentration up to 100 μM) | IC50 (UGT1A1) | IC50 (UGT1A9) | inhibition at 100 µM (UGT1A9) | inhibition at 100 µM (UGT1A1; human, human liver microsomes (HLM), probe SN-38, HLM, 100 μM test compound) | Km ([2]; pooled HLM 0.2 mg protein/ml, 60 min, substrate inhibition kinetics) | Structure (SMILES) | steady-state maximal plasma concentration (Cmax) [1] | Ksi ([2]; pooled HLM) | Vmax ([2]; pooled HLM)
1 | no significant inhibitory effects | > 100 µM | ~100 µM | 61.4% |  |  | CCCSc1nc(N[C@@H]2C[C@H]2c2ccc(F)c(F)c2)c2nnn([C@@H]3C[C@H](OCCO[C@@H]4O[C@H](C(=O)O)[C@@H](O)[C@H](O)[C@H]4O)[C@@H](O)[C@H]3O)c2n1 [Ticagrelor-O-Glu, ticagrelor-O-glucuronide] |  |  | 
2 |  | ~100 µM | > 100 µM | 13.3% | 56.8% | 5.65 µM | CCCSc1nc(N[C@@H]2C[C@H]2c2ccc(F)c(F)c2)c2nnn([C@@H]3C[C@H](OCCO)[C@@H](O)[C@H]3O)c2n1 [Ticagrelor] | 810 ng/mL | 1,343 μM and 1,343.0 μM | 8.03 pmol·min^−1·mg protein^−1
